Test results from US20240407414A1, “DIHYDROCHALCONE DERIVATIVES” (SYMRISE AG, priority 2021, published 2024).
Several values for one entry are separate records, joined by “and”; a condition that tells them apart may be missing. Equal values may be shown once. Entries after “also recorded” stand apart in the source; their conditions may differ.

Experiments:
[1] = Descriptor intensities (0-9) in orange softdrink base, panel of five flavorists; type: in vivo; settings: for Lingering sweetness (0-9) A / Off note (0-9) A / Onset sweetness (0-9) A / Overall sweetness (0-9) A / acidity (0-9) A / fruity (0-9) A / juicy (0-9) A / mouthfeel (0-9) A / orange (0-9) A: A: substance alone in orange softdrink base; for Lingering sweetness (0-9) A / Off note (0-9) A / Onset sweetness (0-9) A / Overall sweetness (0-9) A / acidity (0-9) A / fruity (0-9) A / juicy (0-9) A / mouthfeel (0-9) A / orange (0-9) A / Lingering sweetness (0-9) B / Off note (0-9) B / Onset sweetness (0-9) B / Overall sweetness (0-9) B / acidity (0-9) B / fruity (0-9) B / juicy (0-9) B / mouthfeel (0-9) B / orange (0-9) B: RS 200, PD 120, HT 10, PH 30 mg/kg, n=5; for Lingering sweetness (0-9) B / Off note (0-9) B / Onset sweetness (0-9) B / Overall sweetness (0-9) B / acidity (0-9) B / fruity (0-9) B / juicy (0-9) B / mouthfeel (0-9) B / orange (0-9) B: B: + 20 mg/kg G92828 in orange softdrink base; for Lingering sweetness (0-9) Δ / Off note (0-9) Δ / Onset sweetness (0-9) Δ / Overall sweetness (0-9) Δ / acidity (0-9) Δ / fruity (0-9) Δ / juicy (0-9) Δ / mouthfeel (0-9) Δ / orange (0-9) Δ: difference B vs A (effect of 20 mg/kg G92828)
Procedure: Different descriptors relevant for the overall liking of an orange softdrink were applied and the differences in intensities of each descriptor (Δ) of FMP (A) to FMP+ compound (1) (B) were determined by a panel of five flavorists (n=5) and given as intensities from 0-9 as shown in Tables 4-12. The panelists were asked to neutralise with tap water between each sample and the intensity of the descriptors of each sample were defined before tasting the next sample. The tasting of each RS, PD, HT or PH (A) were followed by the samples with added RS, PD, HT or PH+compound (1) (B) with each being compared to the intensities of the base.

[2] = Sweet taste / sweetness enhancing properties of 6″-O-acetylphloridzin; settings: in vivo
Source text: It can therefore not be concluded that any dihydrochalcone glycoside carrying an acetyl substituent will taste sweet or be able to enhance or modulate sweetness.

[3] = Duo test (paired comparison, trained sensory panel) of compounds against 5% sucrose solution; type: in vivo; settings: 50 mg/kg in 5% sucrose solution; for sweet modul. activity (%): 20 panelists, perceived sweeter than without addition
Source text: The sensory impact of trilobatin and compound (1) have been compared by a trained sensory panel (Table 1) using a series of paired comparison tests. The samples were coded and randomized (referred to as Duo test):
Each of compound (1) and trilobatin has been compared with a 5% sucrose solution in water.

[4] = Intrinsic sweetness by Duo test against 1.5% sucrose; type: in vivo
Procedure: 200 g/l L. litseifolius leaf extract (47% trilobatin, 7% phloridizin) was dissolved in triacetin and reacted with lipase Novozyme 435 for 6 h at 80° C. After cooling the mixture, the solution was filtrated. The solution contained 4.2% compound 1. The intrinsic sweetness of the solution was determined by a Duo test comparing different concentrations of this solution with a 1.5% sucrose sample. It turned out that 0.15% of the solution (containing 63 mg/kg compound 1) was as sweet as 1.5% sucrose.
The intrinsic sweetness of pure compound (1) (>95%) was determined by a panel of 20 trained panellists. Thereby, a 1.5% sucrose solution was compared by a Duo test with 65 mg/kg of compound (1) in water. […] The intrinsic sweetness of compound (1) in a mixture of trilobatin and diacetyl trilobatins was similar than of pure compound (1).

[5] = Sensory profile of sugar solution with added compounds; type: in vivo; settings: 80 mg/kg in 5% sucrose solution
[6] = cited from earlier work
[7] = soft drink base and in combination with RS, PD, HT and PH

## O=C(CCc1ccc(O)cc1)c1c(O)cc(O)cc1O [PH, Phloretin]
[1]
  Lingering sweetness (0-9) A: 0.0
  Off note (0-9) A: 0.0
  Onset sweetness (0-9) A: 5.0
  Overall sweetness (0-9) A: 6.5
  acidity (0-9) A: 3.5
  fruity (0-9) A: 5.5
  juicy (0-9) A: 5.0
  mouthfeel (0-9) A: 4.0
  orange (0-9) A: 5.0
  Lingering sweetness (0-9) B: 0.0
  Off note (0-9) B: 0.0
  Onset sweetness (0-9) B: 6.0
  Overall sweetness (0-9) B: 6.5
  acidity (0-9) B: 3.0
  fruity (0-9) B: 5.5
  juicy (0-9) B: 5.5
  mouthfeel (0-9) B: 5.0
  orange (0-9) B: 5.0
  Lingering sweetness (0-9) Δ: 0.0
  Off note (0-9) Δ: 0.0
  Onset sweetness (0-9) Δ: 1.0
  Overall sweetness (0-9) Δ: 0.0
  acidity (0-9) Δ: −0.5
  fruity (0-9) Δ: 0.0
  juicy (0-9) Δ: 0.5
  mouthfeel (0-9) Δ: 1.0
  orange (0-9) Δ: 0.0

## CC(=O)OC[C@H]1O[C@@H](Oc2cc(O)cc(O)c2C(=O)CCc2ccc(O)cc2)[C@H](O)[C@@H](O)[C@@H]1O [6″-O-Acetylphloridzin]
[2]
  sweet taste or sweetness enhancing properties: did not show any sweet taste or sweetness enhancing properties

## CC(=O)OC[C@H]1O[C@@H](Oc2cc(O)c(C(=O)CCc3ccc(O)cc3)c(O)c2)[C@H](O)[C@@H](O)[C@@H]1O [compound (1), 6″-O-acetyltrilobatin]
[3]
  significance of sweet modulating activity / sensory effect: significant
  sweet modul. activity (%): 27.5% and 27.54%
[1]
  Lingering sweetness (0-9) B: 0.0
  Off note (0-9) B: 0.0
  Onset sweetness (0-9) B: 4.5
  Overall sweetness (0-9) B: 6.0
  acidity (0-9) B: 3.5
  fruity (0-9) B: 5.0
  juicy (0-9) B: 4.0
  mouthfeel (0-9) B: 4.0
  orange (0-9) B: 5.0
  Lingering sweetness (0-9) Δ: 0.0
  Off note (0-9) Δ: 0.0
  Onset sweetness (0-9) Δ: 0.5
  Overall sweetness (0-9) Δ: 1.0
  acidity (0-9) Δ: −0.5
  fruity (0-9) Δ: 0.0
  juicy (0-9) Δ: 0.0
  mouthfeel (0-9) Δ: 0.5
[1]; base, RS, HT and PH
  effect on perceived acidity: reducing perceived acidity
[1]; in combination with PD
  effect on acidity: no reduction in acidity
  effect on lingering aftertaste: slightly reduced
[1]; in combination with PH, compared to PH
  effect on overall sweetness: no increase in overall sweetness
[1]; in combination with RS
  effect on lingering aftertaste: slight increase in lingering aftertaste
[1]; in combination with RS and PD
  effect on fruity notes: increasing fruity notes
[1]; in combination with RS, PD and HT
  effect on overall sweetness: increased
[1]; in combination with RS, PD, HT and PH
  effect on onset sweetness: increases the onset sweetness
[1]; in combination with each tested FMP
  effect on juicy character: increasing the juicy character
[1]; [7]
  effect on intensity of orange flavor: no impact
  effect on off notes: no impact
[1]; test base alone
  effect on juicy notes: no effect
[1]; test base and every tested FMP
  effect on mouthfeel: improves the mouthfeel
[4]; in enzymatically acetylated L. litseifolius leaf extract solution (4.2% compound 1) dosed at 0.15%
  concentration of compound 1 contained in solution as sweet as 1.5% sucrose: 63 mg/kg
[4]; in vivo
  intrinsic sweetness in a mixture of trilobatin and diacetyl trilobatins compared with pure compound: similar
[5]
  Aftertaste: 1
  Impact: 4
  Intensity: 6
  Mouthfeel: 5

## O=C(CCc1ccc(O)cc1)c1c(O)cc(O[C@@H]2O[C@H](CO)[C@@H](O)[C@H](O)[C@H]2O)cc1O [trilobatin, phloretin-4′-β-D-glucopyranoside]
[3]
  significance of sweet modulating activity / sensory effect: did not have a significant sensory effect; also recorded: did not show a significant sensory effect
  sweet modul. activity (%): 1.66%
[6]; 20 mg/kg
  taste at 20 mg/kg: does not taste sweet
[6]; 100 mg/kg, compared to 0.5% sucrose solution
  taste at 100 mg/kg: weakly sweet
[6]; in vivo
  concentration above which sweetness can be detected: above 60 mg/kg
[5]
  Aftertaste: 1
  Impact: 3
  Intensity: 4
  Mouthfeel: 5

## COc1ccc([C@@H]2CC(=O)c3c(O)cc(O)cc3O2)cc1O [HT, Hesperetin]
[1]
  Lingering sweetness (0-9) A: 0.0
  Off note (0-9) A: 0.0
  Onset sweetness (0-9) A: 5.0
  Overall sweetness (0-9) A: 6.0
  acidity (0-9) A: 4.0
  fruity (0-9) A: 5.0
  juicy (0-9) A: 4.0
  mouthfeel (0-9) A: 4.0
  orange (0-9) A: 5.0
  Lingering sweetness (0-9) B: 0.0
  Off note (0-9) B: 0.0
  Onset sweetness (0-9) B: 6.0
  Overall sweetness (0-9) B: 7.5
  acidity (0-9) B: 3.5
  fruity (0-9) B: 5.0
  juicy (0-9) B: 5.0
  mouthfeel (0-9) B: 4.5
  orange (0-9) B: 5.0
  Lingering sweetness (0-9) Δ: 0.0
  Off note (0-9) Δ: 0.0
  Onset sweetness (0-9) Δ: 1.0
  Overall sweetness (0-9) Δ: 1.5
  acidity (0-9) Δ: −0.5
  fruity (0-9) Δ: 0.0
  juicy (0-9) Δ: 1.0
  mouthfeel (0-9) Δ: 0.5
  orange (0-9) Δ: 0.0
